Laboratory results from patent US9499550B2 (BRISTOL-MYERS SQUIBB COMPANY, priority 2012, dated 2016).
Like-named read-outs stand apart in the source and are kept apart here.

What was measured:
[1] = system: HCV genotype 1a (H77 strain) replicon in HUH-7 cells; assay: HCV replicon luciferase reporter assay, genotype 1a; type: cell-based; details: Hepatitis C virus, Huh-7, 72 h, HCV genotype 1a replicon luciferase, 3 days incubation, read-out: LE_1a (EC50, range)
From the text: (§1) Generation of HCV Replicon
(§2) An HCV replicon whole cell system was established as described by Lohmann V, Korner F, Koch J, Herian U, Theilmann L, Bartenschlager R., Science 285(5424):110-3 (1999) and modified to introduce a luciferase reporter, as first described by Krieger et al (Krieger N, Lohmann V, and Bartenschlager R, J. Virol. 75(10):4614-4624 (2001)). CDNA encoding a humanized form of the Renilla luciferase gene and a linker sequence fused directly to the 3′-end of the luciferase gene were introduced into the replicon construct using an Asc1 restriction site located in core, directly upstream of the neomycin marker gene. The adaptive mutation at position 1179 (serine to isoleucine) was also introduced (Blight K J, Kolykhalov, A A, Rice, C M, Science 290(5498):1972-1974). A stable cell line constitutively expressing this HCV replicon construct was generated by first linearizing plasmid DNAs with ScaI. RNA transcripts were synthesized in vitro using the T7 MegaScript transcription kit (Ambion, Austin, Tex.) according to manufacturer's directions. In vitro transcripts of the cDNA were transfected into the human hepatoma cell line, HUH-7. […] Resulting cell lines were characterized for positive and negative strand RNA production and protein production over time.
A stable HCV replicon luciferase reporter cell line representing the genotype 1a H77 strain (Yanagi M, Purcell R H, Emerson S U, et al. Transcripts from a single full-length cDNA clone of hepatitis C virus are infectious when directly transfected into the liver of a chimpanzee. Proc Natl Acad Sci USA 1997; 94(16):8738-8743) was generated as described previously for the genotype 1b(Con1) replicon luciferase cell line. The replicon construct was modified by introducing mutations were introduced into the genes encoding the NS3 helicase domain (proline replaced by leucine at position 1496) and NSSA (serine to isoleucine at position 2204) to improve replication in cell culture.
(§3) HCV Replicon Luciferase Reporter Assay
(§4) HCV replicon luciferase assays were developed to monitor the inhibitory effects of compounds described in the disclosure on HCV genotypes 1a and 1b viral replication. HUH-7 cells, constitutively expressing the HCV replicon, were grown in Dulbecco's Modified Eagle Media (DMEM) (Gibco-BRL) containing 10% Fetal calf serum (FCS) (Sigma) and 1 mg/mL G418 (Gibco-BRL). Compounds were serially diluted 3 folds in DMSO for a twenty-point titration and subsequently transferred to sterile 384-well tissue-culture treated plates (Corning cat #3571). The plates were then seeded with 50 μL of cells at a density of 3.0×10^3 cells/well in DMEM containing 4% FCS (final DMSO concentration at 0.5%). After 3 days incubation at 37° C., cells were analyzed for Renilla Luciferase activity using the EnduRen as substrate (Promega cat #E6485). The EnduRen substrate was diluted in DMEM and then added to the plates to a final concentration of 7.5 μM. The plates were incubated for 2 hrs at 37° C. and then read immediately for 30 seconds with Viewlux Imager (PerkinElmer) using a luminescence program. To assess cytotoxicity of compounds, CC50 values were generated by multiplexing the EnduRen-containing plates with Cell Titer-Blue (Promega, cat # G8082). Cell-Titer Blue (3 μL) was added to each well and incubated for 8 hrs at 37° C. The fluorescence signal from each well was read, with an excitation wavelength at 525/10 nm and an emission wavelength of 598/10 nm, using the Viewlux Imager.
(§5) The EC50 values for compounds were calculated by using a four-parameter logistic equation: y=A+((B−A)/(1+((C/x)^D))), where A and B denotes minimal and maximal % inhibition, respectively, C is the EC50, D is the hill slope and x represents compound concentration.

[2] = system: HCV genotype 1b (Con1) replicon in HUH-7 cells; assay: HCV replicon luciferase reporter assay, genotype 1b; type: cell-based; details: Hepatitis C virus, Huh-7, 72 h, 3 days incubation, read-out: LE_1b (EC50, range)
From the text: as §1
as §2, with “time. […]” for “time.”
as §3, §4, §5

[3] = GETYPE1B, HCV genotype 1b replicon luciferase
[4] = HCV genotype 1b replicon luciferase
[5] = HCV genotype 1b replicon luciferase assay, range class

SMILES	EC50 ([1]; GETYPE1A)	EC50 [2, 3]	EC50 [1]	EC50 [2, 4]	EC50 [2, 5]
COc1cc2ccnc(O[C@@H]3C[C@H]4C(=O)N[C@]5(C(=O)NS(=O)(=O)C6CC6)C[C@H]5/C=C\CC[C@@H](C)C[C@@H](C)[C@H](NC(=O)OC(C)(C)C(F)(F)F)C(=O)N4C3)c2cc1F [Compound 4169]	< 5.46 nM	< 5.46 nM			
CC[C@@H]1C[C@H](C)CC/C=C\[C@@H]2C[C@@]2(C(=O)NS(=O)(=O)C2(C)CC2)NC(=O)[C@@H]2C[C@@H](Oc3nc4c(c5cc(OC)ccc35)CCCO4)CN2C(=O)[C@H]1NC(=O)OC(C)(C)C(C)(F)F [Compound 6090, 3,3-difluoro-2-methylbutan-2-yl((2R,6S,7R,9R,13aS,14aR,16aS,Z)-7-ethyl-2-((9-methoxy-2,3-dihydro-1H-pyrano[2,3-c]isoquinolin-6-yl)oxy)-9-methyl-14a-(((1-methylcyclopropyl)sulfonyl)carbamoyl)-5,16-dioxo-1,2,3,5,6,7,8,9,10,11,13a,14,14a,15,16,16a-hexadecahydrocyclopropa[e]pyrrolo[1,2-a][1,4]diazacyclopentadecin-6-yl)carbamate]			0.51 to 1 nM	0.51 to 1 nM	
COc1cc2ccccc2c(O[C@@H]2C[C@H]3C(=O)N[C@]4(C(=O)NS(=O)(=O)C5(C)CC5)C[C@H]4/C=C\CC[C@H](C)C[C@@H](C)[C@H](NC(=O)OC(C)(C)C)C(=O)N3C2)n1 [Compound 6008, tert-butyl ((2R,6S,7R,9S,13aS,14aR,16aS,Z)-2-((3-methoxyisoquinolin-1-yl)oxy)-7,9-dimethyl-14a-(((1-methylcyclopropyl)sulfonyl)carbamoyl)-5,16-dioxo-1,2,3,5,6,7,8,9,10,11,13a,14,14a,15,16,16a-hexadecahydrocyclopropa[e]pyrrolo[1,2-a][1,4]diazacyclopentadecin-6-yl)carbamate]			< 5.46 nM	< 5.46 nM	
CC[C@@H]1C[C@@H](C)CC/C=C\[C@@H]2C[C@@]2(C(=O)NS(=O)(=O)C2CC2)NC(=O)[C@@H]2C[C@@H](Oc3nccc4c5c(ccc34)N(C)CCO5)CN2C(=O)[C@H]1NC(=O)C(=O)N(C)C [Compound 5317, N1-((2R,6S,7R,9S,13aS,14aR,16aS,Z)-14a-((cyclopropylsulfonyl)carbamoyl)-7-ethyl-9-methyl-2-((4-methyl-3,4-dihydro-2H-[1,4]oxazino[2,3-f]isoquinolin-7-yl)oxy)-5,16-dioxo-1,2,3,5,6,7,8,9,10,11,13a,14,14a,15,16,16a-hexadecahydrocyclopropa[e]pyrrolo[1,2-a][1,4]diazacyclopentadecin-6-yl)-N2,N2-dimethyloxalamide]			4.82 to 103 nM	4.82 to 103 nM	
CC[C@@H]1C[C@H](C)CC/C=C\[C@@H]2C[C@@]2(C(=O)NS(=O)(=O)C2(C)CC2)NC(=O)[C@@H]2C[C@@H](Oc3nc4cc(OC)ccc4nc3C(C)C)CN2C(=O)[C@H]1NC(=O)OC(C)(C)C [Compound 4250, tert-butyl ((2R,6S,7R,9R,13aS,14aR,16aS,Z)-7-ethyl-2-((3-isopropyl-7-methoxyquinoxalin-2-yl)oxy)-9-methyl-14a-(((1-methylcyclopropyl)sulfonyl)carbamoyl)-5,16-dioxo-1,2,3,5,6,7,8,9,10,11,13a,14,14a,15,16,16a-hexadecahydrocyclopropa[e]pyrrolo[1,2-a][1,4]diazacyclopentadecin-6-yl)carbamate]			1.01 to 5 nM	1.01 to 5 nM	
CCCOc1ccc2c(O[C@@H]3C[C@H]4C(=O)N[C@]5(C(=O)NS(=O)(=O)C6CC6)C[C@H]5/C=C\CC[C@@H](C)C[C@@H](C)[C@H](NC(=O)OC(C)(C)C(F)(F)F)C(=O)N4C3)nccc2c1 [Compound 5171, 1,1,1-trifluoro-2-methylpropan-2-yl((2R,6S,7R,9R,13aS,14aR,16aS,Z)-14a-((cyclopropylsulfonyl)carbamoyl)-7,9-dimethyl-5,16-dioxo-2-((6-propoxyisoquinolin-1-yl)oxy)-1,2,3,5,6,7,8,9,10,11,13a,14,14a,15,16,16a-hexadecahydrocyclopropa[e]pyrrolo[1,2-a][1,4]diazacyclopentadecin-6-yl)carbamate]			< 5.46 nM	< 5.46 nM	
CCC1(S(=O)(=O)NC(=O)[C@@]23C[C@H]2/C=C\CC[C@@H](C)C[C@@H](C)[C@H](NC(=O)OC(C)(C)C(F)(F)F)C(=O)N2C[C@H](Oc4nccc5cc(OC)ccc45)C[C@H]2C(=O)N3)CC1 [Compound 4077]	< 5.46 nM	< 5.46 nM			
COc1ccc2c(O[C@@H]3C[C@H]4C(=O)N[C@]5(C(=O)NS(=O)(=O)C6(C)CC6)C[C@H]5/C=C\CC[C@@H](C)C[C@@H](C)[C@H](NC(=O)OC(C)(C)C)C(=O)N4C3)nc(-c3ccc(OC(C)C)cc3)cc2c1 [Compound 4063, tert-butyl (2R,6S,7R,9R,13aS,14aR,16aS,Z)-2-(3-(4-isopropoxyphenyl)-6-methoxyisoquinolin-1-yloxy)-7,9-dimethyl-14a-(1-methylcyclopropylsulfonylcarbamoyl)-5,16-dioxo-1,2,3,5,6,7,8,9,10,11,13a,14,14a,15,16,16a-hexadecahydrocyclopropa[e]pyrrolo[1,2-a][1,4]diazacyclopentadecin-6-ylcarbamate]			< 5.46 nM	< 5.46 nM	
COCCn1nc(O[C@@H]2C[C@H]3C(=O)N[C@]4(C(=O)NS(=O)(=O)C5CC5)C[C@H]4/C=C\CC[C@H](C)C[C@@H](C)[C@H](NC(=O)OC(C)(C)C(C)(F)F)C(=O)N3C2)c2ccccc2c1=O [Compound 1023, 3,3-difluoro-2-methylbutan-2-yl((2R,6S,7R,9S,13aS,14aR,16aS,Z)-14a-((cyclopropylsulfonyl)carbamoyl)-2-((3-(2-methoxyethyl)-4-oxo-3,4-dihydrophthalazin-1-yl)oxy)-7,9-dimethyl-5,16-dioxo-1,2,3,5,6,7,8,9,10,11,13a,14,14a,15,16,16a-hexadecahydrocyclopropa[e]pyrrolo[1,2-a][1,4]diazacyclopentadecin-6-yl)carbamate]					> 87.4 nM
COc1ccc2c(O[C@@H]3C[C@H]4C(=O)N[C@]5(C(=O)NS(=O)(=O)C6(CF)CC6)C[C@H]5/C=C\CC[C@H](C)C[C@@H](C)[C@H](NC(=O)OC(C)(C)C(C)(F)F)C(=O)N4C3)nccc2c1 [Compound 1142, 3,3-difluoro-2-methylbutan-2-yl((2R,6S,7R,9S,13aS,14aR,16aS,Z)-14a-(((1-(fluoromethyl)cyclopropyl)sulfonyl)carbamoyl)-2-((6-methoxyisoquinolin-1-yl)oxy)-7,9-dimethyl-5,16-dioxo-1,2,3,5,6,7,8,9,10,11,13a,14,14a,15,16,16a-hexadecahydrocyclopropa[e]pyrrolo[1,2-a][1,4]diazacyclopentadecin-6-yl)carbamate]					< 5.46 nM
